# From patent US9402849B2, “Composition for moderating alcohol metabolism and for reducing the risk of alcohol induced diseases” (Tima Foundation, priority 2005, dated 2016)
# Several values for one entry are separate records, joined by “and”; a condition that tells them apart may be missing. Equal entries are not always repeated.
# How the values were obtained:
# RPMI4788 cells = experiment: Alcohol enhanced pulmonary metastasis of RPMI4788 cells in nude mice (nodules on lung surface); type: in vivo
# Protocol: Ingredients of Supplement except Coenzyme Q10 were purchased from Sigma Aldrich Japan (Tokyo, Japan). Ten gram of dextrose, 1.0 gram of Vitamin C, 1.5 gram of L-glutamine, 500 mg of cysteine, 40 mg of riboflavin, 100 mg of succinic acid, 100 mg of fumaric acid, and 10 mg of niacin were dissolved in 100 ml of distilled water (Supplement Solution). One hundred mg of Coenzyme Q10 (Jarrow Formulas, Los Angels, Calif., USA) was dissolved in 14 ml of sesame oil.
# Male, 6-week-old nude mice of BALB/cA-jcl-nu/nu class were purchased (Clea Japan Inc., Shizuoka, Japan) and allowed to acclimate for one week prior to the study. During the experiment the mice were maintained at a temperature of 23° C., 50% humidity and a specific-pathogen-free (SPF) condition.
# RPM14788 cells derived from human colorectal cancer generate pulmonary metastasis in nude mouse (Moore G E & Koike A (1964), Cancer January, 17: 11-20; Kondo H. et al. (1987), Jpn J Cancer Res (Gann) 78, 12: 1400-1408). The cell line was subcultured in tissue culture flasks with culture medium of RPMI1640 solution (Nikken Biomedical Laboratory, Kyoto, Japan) supplemented with 10% Fetal Bovine Serum. (FBS) (Hycione Laboratories Inc., Logan, Utah) at 37° C., in an atmosphere of 100% humidity, 5% CO2 and 95% air. Following isolation of the cultured cells by 0.02% EDTA, a cell suspension was prepared using PBS of 0.01M; trypan blue staining confirmed cell viability over 98%.
# To produce lung metastases, nude mice were injected cell suspension of 5×10^4/0.1 ml into tail vein. Twenty-eight days after the injection, all metastatic nodules on the lung surface were counted. The lung was fixed in 10% neutral formaldehyde and embedded in paraffin. Sections were stained with Hematoxylin-Eosin and examined histologically.
# For testing the supplement, 320 μl of supplement solution and 50 μl of Co-Q10 dissolved sesame oil per mouse were administrated to the stomach by oral metal tube. For assaying the effects of Supplement+EtOH, one hour after the supplement administration, 7.0 ml/kg of ethanol were injected into the peritoneal cavity. Then 1 hour after the ethanol injection, 5×10^4/100 μl of RPM14788 cells were injected into the tail vein. The nude mice were sacrificed 28 days after the cell injection and the metastatic nodules on the lung surface were counted.
# YAC-1 cells = experiment: NK cytotoxic activity of nude mouse splenocytes, short-term 51Cr-release assay; type: in vivo; details: for NK activity, % Control: EtOH versus control nude mice
# Protocol: A short-term ^51Cr-release assay was used to determine the natural killer (NK) cytotoxic activity. Mice were divided in following 3 groups; control, ethanol administration, and Supplement and ethanol administration. Twenty, four hours after the ethanol administration, splenocytes of the nude mouse were separated as single cell suspension. Target YAC-1 cells (1×10^7) were labeled by incubation with 200 μCi of ^51Cr for 2 hours at 37C. After being washed and then incubated for 2 hours at 37° C., the cells were supplemented in RPMI1640 medium. 20 μl of the labeled target cells and 100 μl of effector cells were mixed into a 96-well microliter plate (Sumitomo Bakelite Co., Ltd., Tokyo, Japan) at various effector/target cell ratios. After 4 hours of incubation, the plates were centrifuged and the radioactivity of the supernatant was measured by a gamma-counter. The percent of cytotoxicity was calculated as (experimental group release−spontaneous release/total release−spontaneous release). Statistical analysis of the results was conducted by t^2 test, and […] was defined as the level of significance.
smiles,measurement,setting,value
"CCO [ETOH, ethanol]","Number of Metastatic nodules on the lung surface, Average","RPMI4788 cells; ETOH + 4788, 16 mice",42.25
same,"Number of Metastatic nodules on the lung surface, Total","RPMI4788 cells; ETOH + 4788, 16 mice",676
same,Number of Metastatic nodules on the lung surface,"RPMI4788 cells; ETOH + 4788, single mouse, ethanol 7.0 ml/kg i.p. 1 h before cells, 28 days",75 and 58 and 69 and 62 and 18 and 19 (2×) and 21 (2×) and 24 and 20 (2×) and 48 and 70 and 64 and 68
same,Total metastatic nodules minus 4788,"RPMI4788 cells; ETOH + 4788, total minus control total",251
same,Enhancement of metastatic potential of 4788 cell line,RPMI4788 cells; Ethanol + 4788 versus control,approximately 60%
same,NK activity,YAC-1 cells; EtOH,11.20%
same,"NK activity, % Control",YAC-1 cells; listed as EtOH,45.5%
same,"NK activity, % Control",YAC-1 cells; listed as Ethanol,45.5%
same,Average cont (51Cr release),"YAC-1 cells; EtOH, splenocytes 24 h after ethanol",568.6
